Measurements as given in patent publication US20050085444A1, “Cosmetic or dermatological use of vitamin a or the esters thereof in combination with a partly methylated beta-cyclodextrin” (priority 2002, published 2005).

Conditions: fresh human skin with dermis, control/VAP gel and RAMEB/VAP gel, contact time 24 hours
Description: The study is carried out using the Franz cells characterized above.
After a contact time of 24 hours, the excess gel on the surface of the skin is washed off with the aid of cotton buds.
The cotton buds together with the upper part of the cell are immersed in 10 ml of isopropanol and ultrasonicated for 15 minutes and then stirred for 2 hours.
The solutions are diluted to 1/10 and filtered on a 0.2 μm filter before assaying.
The stratum corneum is collected by 7 successive strippings (pressure 300 g/cm^2, duration 12 s). The VAP is extracted by solubilization in 2 ml of methanol overnight at 4° C., followed by stirring for 2 hours and finally filtration on a 0.2 μm filter before assaying.
With the stratum corneum removed, the epidermis is separated from the dermis with the aid of a scalpel.
The VAP is extracted from the epidermis by solubilization of the latter in 1 ml of methanol overnight at 4° C., followed by stirring for 2 hours and finally filtration on a 0.2 μm filter before assaying.
The VAP assays are performed by HPLC.

CCC(=O)OC/C=C(C)/C=C/C=C(C)/C=C/C1=C(C)CCCC1(C)C [VAP, vitamin A propionate]
VAP detected in the reception liquid: No trace
